Measured values as given in US20050085644A1, “Novel 3-aryl-2,5-dihydroxy-1,4-benzoquinone derivatives, their preparation method and pharmaceutical compositions containing same” (priority 2002, published 2005).

What was measured:
ob/ob C57BL/6 mice = test: Chronic in vivo study in ob/ob mice; conditions: female ob/ob C57BL/6 mice, 9 days, 10 or 20 mg/kg po
Method: 11-week-old female ob/ob C57BL/6 mice randomly selected in terms of basal glycaemia from animals that have been fed are treated for 9 days with the test compound at 10 or 20 mg/kg po and compared with a control group receiving 1% HEC. Biological balance (glycaemia, insulinaemia, triglyceridaemia) is reached on the 10th day with the animals that have been fed, the final treatment having taken place the day before. The results are expressed as percentage variations in relation to D0 (glycaemia, body weight) compared with the control group.

protein kinase B = test: Activation (phosphorylation) of protein kinase B in CHO-HIR cells, immunoblotting; format: cell-based, hamster; conditions: 10^−5M, two hours at 37° C.
Method: (§1) The pharmacological effect of the compounds of the invention on cellular signaling is evaluated in vitro using hamster ovary cells transfected with human insulin receptors (CHO-HIR). The techniques employed are from TAVARE and DENTON (1988, BIOCHEM. J., 250, 509-519) and TAVARE et al. (1988, Biochem. J., 253, 783-788) modified by ISSAD et al. (1991, Biochem. J., 275, 15-21) and COMBETTES-SOUVERAIN et al. (1997, Diabetologia, 40, 533-540).
(§2) The products are studied at 10^−5M under incubation for two hours at 37° C. with CHO-HIR in culture. A negative control (solvent) and a positive control (insulin 50 nM, 5 min incubation) are used in parallel in the same test. […]
(§3) The phosphorylation of the insulin receptors (IR) and the phosphorylation of protein kinase B are evaluated by immunoblotting as follows.
Similarly, the state of phosphorylation of protein kinase B following electrophoresis of the samples on 10% polyacrylamide gel is determined by chemiluminescence after immunoblotting with anti-phospho protein kinase B antibodies (phospho Akt(Ser473) antibody, ref 9271, Cell Signaling) and then related to the total protein kinase B quantity (AKT antibody, ref 9272, Cell signaling).
The phosphorylation induced by the compounds of the invention is expressed as a percentage in relation to 50 nM insulin, fixed at 100% activation.

human insulin receptors = molecular target: T1, human insulin receptors (Homo sapiens, UniProt P06213); test: Activation (phosphorylation) of insulin receptors in CHO-HIR cells, immunoblotting; format: cell-based; conditions: 2 h, 10^−5M, two hours at 37° C., read-out: activation percentage for insulin receptors (phosphorylation in relation to 50 nM insulin fixed at 100%)
T1 construct: expressed in transfected cells; host or cells: CHO-HIR (hamster ovary cells)
Method: as §1, §2, §3
The IR are extracted over wheatgerm lectin; the samples are then subjected to electrophoresis on 7.5% polyacrylamide gel and subjected to an electric transfer onto PDVF membrane in a semi-dry system. […] After dehydridisation and then rehydridisation with an anit-insulin receptor β subunit antibody (βsubunit, ref 06492, Upstate Biotechnology), the total IR quantity deposited on blot is evaluated by chemiluminescence and the phosphorylation rate of the receptors is related to the total receptor quantity deposited. […]

T1 sequence (P06213 28-758 limits assumed): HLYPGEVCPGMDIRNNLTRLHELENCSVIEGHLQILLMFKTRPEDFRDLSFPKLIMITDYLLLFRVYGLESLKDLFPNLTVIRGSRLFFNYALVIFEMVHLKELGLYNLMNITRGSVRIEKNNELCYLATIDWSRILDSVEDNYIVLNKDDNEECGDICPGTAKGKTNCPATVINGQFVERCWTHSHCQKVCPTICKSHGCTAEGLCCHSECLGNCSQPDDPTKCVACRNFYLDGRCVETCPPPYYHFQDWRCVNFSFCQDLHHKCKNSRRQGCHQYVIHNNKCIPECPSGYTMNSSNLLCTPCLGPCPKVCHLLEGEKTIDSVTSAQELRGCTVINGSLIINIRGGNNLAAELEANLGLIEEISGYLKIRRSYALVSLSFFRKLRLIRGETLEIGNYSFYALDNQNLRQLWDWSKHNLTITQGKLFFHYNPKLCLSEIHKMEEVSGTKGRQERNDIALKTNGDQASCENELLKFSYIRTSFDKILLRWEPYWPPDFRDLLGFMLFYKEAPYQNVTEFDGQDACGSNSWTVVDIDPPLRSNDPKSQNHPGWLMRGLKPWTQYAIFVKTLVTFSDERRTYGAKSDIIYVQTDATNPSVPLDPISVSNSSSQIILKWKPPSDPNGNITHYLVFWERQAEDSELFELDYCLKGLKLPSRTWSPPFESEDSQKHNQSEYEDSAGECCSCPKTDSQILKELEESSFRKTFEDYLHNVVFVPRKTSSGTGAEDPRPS

Compound: O=C1C(O)=C(c2ccccc2)C(=O)C(O)=C1/C=C/c1ccccc1 [Example 1, 2,5-Dihydroxy-3-phenyl-6-[(E)-2-phenylethenyl]-1,4-benzoquinone]
- triglycerides, reduction compared with the control (ob/ob C57BL/6 mice; fed, 10th day): −37.8%
- melting point: 259 to 260 °C

Compound: O=C1C(O)=C(c2ccccc2)C(=O)C(O)=C1/C=C/c1ccc(Br)cc1 [Example 3, 2,5-Dihydroxy-3-phenyl-6-[(E)-2-(4-bromophenyl)-ethenyl]-1,4-benzoquinone]
- melting point: 240 to 241 °C

Compound: C/C(=C\c1ccccc1)C1=C(O)C(=O)C(c2ccccc2)=C(O)C1=O [Example 10, 2,5-Dihydroxy-3-[(E)-1-methyl-2-phenylethenyl]-6-phenyl-1,4-benzoquinone]
- activation percentage for protein kinase B (phosphorylation in relation to 50 nM insulin fixed at 100%) (protein kinase B): 91%

Compound: O=C1C(O)=C(c2ccc3ccccc3c2)C(=O)C(O)=C1c1ccc(Cl)cc1 [Example 16, 2-(4-Chlorophenyl)-3,6-dihydroxy-5-(2-naphthyl)-1,4-benzoquinone]
- insulinaemia, variation compared with the controls (ob/ob C57BL/6 mice; fed, 10th day): −84.2%
- glycaemia, percentage variation in relation to D0 (ob/ob C57BL/6 mice; fed, 10th day, controls +4.5%): −60.7%
- body weight, percentage variation in relation to D0 (ob/ob C57BL/6 mice; control group +4.9%): −26.9%

Compound: O=C1C(O)=C(c2ccccc2)C(=O)C(O)=C1/C=C/c1ccc(F)cc1 [Example 27, 2-[(E)-2-(4-Fluorophenyl)ethenyl]-3,6-dihydroxy-5-phenyl-1,4-benzoquinone]
- activation at 10 µM (human insulin receptors): 87.7%
- activation percentage for protein kinase B (phosphorylation in relation to 50 nM insulin fixed at 100%) (protein kinase B): 48.9%

Compound: O=C1C(O)=C(c2cccc(Cl)c2)C(=O)C(O)=C1/C=C/c1ccccc1 [Example 30, 2-(3-Chlorophenyl)-3,6-dihydroxy-5-[(E)-2-phenylethenyl]-1,4-benzoquinone]
- activation at 10 µM (human insulin receptors): 134%
